According to BindingDB's records for patent US20250313563 (The Broad Institute, 2025):
“And” between values parts separate entries of the source, which are not always exact repeats. Equal values may be shown once.

Columns and labels:
[1] = biological target: Glycogen synthase kinase-3 alpha (Homo sapiens, UniProt P49840); experiment: TR-FRET Assay
Procedure, shortened: (§1)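 Enzyme and test compound were first incubated together for 30 minutes in assay buffer. The kinase reaction followed and was stopped with EDTA. The pSer641 signal was read by time-resolved FRET.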

[2] = biological target: Glycogen synthase kinase-3 beta (Homo sapiens, UniProt P49841); experiment: TR-FRET Assay
Chain of Glycogen synthase kinase-3 beta (P49841 whole entry): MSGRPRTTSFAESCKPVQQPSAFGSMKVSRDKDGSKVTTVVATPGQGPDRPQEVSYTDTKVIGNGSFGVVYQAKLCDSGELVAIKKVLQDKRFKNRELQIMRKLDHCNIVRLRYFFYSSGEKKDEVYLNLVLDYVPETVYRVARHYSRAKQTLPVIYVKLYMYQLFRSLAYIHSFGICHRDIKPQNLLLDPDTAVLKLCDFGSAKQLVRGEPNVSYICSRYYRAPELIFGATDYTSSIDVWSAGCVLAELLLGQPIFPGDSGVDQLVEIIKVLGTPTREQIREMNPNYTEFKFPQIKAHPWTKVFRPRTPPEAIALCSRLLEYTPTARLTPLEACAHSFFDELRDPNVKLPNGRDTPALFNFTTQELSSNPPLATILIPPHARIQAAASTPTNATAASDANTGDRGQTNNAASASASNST
Procedure, shortened: as §1

Chain of Glycogen synthase kinase-3 alpha (P49840 whole entry): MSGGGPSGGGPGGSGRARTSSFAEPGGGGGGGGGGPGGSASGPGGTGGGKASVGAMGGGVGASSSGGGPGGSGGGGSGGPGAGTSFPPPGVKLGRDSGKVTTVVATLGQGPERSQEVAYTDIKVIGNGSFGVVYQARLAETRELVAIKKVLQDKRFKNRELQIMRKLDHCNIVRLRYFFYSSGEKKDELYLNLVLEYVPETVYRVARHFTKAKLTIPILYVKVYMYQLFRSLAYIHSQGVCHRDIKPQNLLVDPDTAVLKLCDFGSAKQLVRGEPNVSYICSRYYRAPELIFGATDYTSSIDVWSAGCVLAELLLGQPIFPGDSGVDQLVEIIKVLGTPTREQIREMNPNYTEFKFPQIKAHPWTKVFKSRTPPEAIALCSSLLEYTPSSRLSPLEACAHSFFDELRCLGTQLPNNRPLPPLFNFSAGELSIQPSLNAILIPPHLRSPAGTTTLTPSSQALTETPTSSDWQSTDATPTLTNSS

SMILES: CCC1(c2cccc(Br)c2)C2=CN=NC2NC2=C1C(=O)CC(C(F)(F)F)C2 (stereo unspecified) [US20250313563, Compound 819565]
- IC50 [1]: 100 to 1000 nM
- IC50 [2]: 100 to 1000 nM

SMILES: CC[C@]1(c2ccccc2)C2=CN=NC2NC2=C1C(=O)C[C@@](C)(C(F)(F)F)C2 (stereo partly specified) [US20250313563, Compound 819568]
- IC50 [1]: 100 to 1000 nM
- IC50 [2]: 100 to 1000 nM

SMILES: CC[C@@]1(c2ccccc2)C2=CN=NC2NC2=C1C(=O)C[C@@](C)(C(F)(F)F)C2 (stereo partly specified) [US20250313563, Compound 819569]
- IC50 [1]: 100 to 1000 nM
- IC50 [2]: 1000 to 5000 nM

SMILES: CC[C@]1(c2ccccc2)C2=CN=NC2NC2=C1C(=O)CC1(CCC1)C2 (stereo partly specified) [US20250313563, Compound 819573]
- IC50 [1]: < 100 nM
- IC50 [2]: 100 to 1000 nM

SMILES: CC[C@]1(c2cccc(N3CCCC3)c2)C2=C(CC(C)(C)CC2=O)NC2N=NC(C(F)(F)F)=C21 (stereo partly specified) [US20250313563, Compound 819574]
- IC50 [1]: < 100 nM
- IC50 [2]: < 100 nM

SMILES: CC[C@@]1(c2cccc(-c3cnn(C)c3)c2)C2=CN=NC2NC2=C1C(=O)CC(C)(C)C2 (stereo partly specified) [US20250313563, Compound 819576]
- IC50 [1]: 100 to 1000 nM
- IC50 [2]: 1000 to 5000 nM

SMILES: CC[C@]1(c2cccc(-c3cnn(C)c3)c2)C2=CN=NC2NC2=C1C(=O)CC(C)(C)C2 (stereo partly specified) [US20250313563, Compound 819577]
- IC50 [1]: 100 to 1000 nM
- IC50 [2]: 100 to 1000 nM

SMILES: CCC1(c2cccc(C(F)(F)F)c2)C2=CN=NC2NC2=C1C(=O)NC(C)(C)C2F (stereo unspecified) [US20250313563, Compound 819622]
- IC50 [1]: < 100 nM
- IC50 [2]: 100 to 1000 nM

SMILES: CC[C@]1(c2cccc(C3CCOCC3)c2)C2=CN=NC2NC2=C1C(=O)CC(C)(C)C2 (stereo partly specified) [US20250313563, Compound 819638]
- IC50 [1]: 100 to 1000 nM
- IC50 [2]: 100 to 1000 nM

SMILES: CC[C@@]1(c2cccc(C3CCOCC3)c2)C2=CN=NC2NC2=C1C(=O)CC(C)(C)C2 (stereo partly specified) [US20250313563, Compound 819639]
- IC50 [1]: 1000 to 5000 nM
- IC50 [2]: > 5000 nM

SMILES: CCC1(c2cccc(C(F)(F)F)c2)C2=CN=NC2NC2=C1C(=O)N(C)C(C)(C)C2 (stereo unspecified) [US20250313563, Compound 823130]
- IC50 [1]: < 100 nM
- IC50 [2]: 100 to 1000 nM

SMILES: CC[C@]1(c2cccc(-c3cnn(C)c3)c2)C2=CN=NC2NC2=C1C(=O)C[C@@H](C)C2 (stereo partly specified) [US20250313563, Compound 823721]
- IC50 [1]: 100 to 1000 nM
- IC50 [2]: 100 to 1000 nM

SMILES: CC[C@@]1(c2cccc(-c3cnn(C)c3)c2)C2=CN=NC2NC2=C1C(=O)C[C@H](C)C2 (stereo partly specified) [US20250313563, Compound 823724]
- IC50 [1]: 100 to 1000 nM
- IC50 [2]: 1000 to 5000 nM

SMILES: CCC1(c2cccc(C(F)(F)F)c2)C2=CN=NC2NC2=C1C(=O)N(C(C)C)CC2 (stereo unspecified) [US20250313563, Compound 825755]
- IC50 [1]: < 100 nM
- IC50 [2]: 100 to 1000 nM

SMILES: CC1(C)CC(=O)C2=C(C1)NC1=C(CN=N1)C21CCOCC1 [US20250313563, Compound 826648]
- IC50 [1]: 100 to 1000 nM
- IC50 [2]: 100 to 1000 nM

SMILES: CC(=O)N1CCC2(CC1)C1=C(N=NC1)NC1=C2C(=O)CC(C)(C)C1 [US20250313563, Compound 826649]
- IC50 [1]: 100 to 1000 nM
- IC50 [2]: 1000 to 5000 nM

SMILES: CC1(C)CC(=O)C2=C(C1)NC1=C(CN=N1)C21CCCCC1 [US20250313563, Compound 826650]
- IC50 [1]: < 100 nM
- IC50 [2]: < 100 nM

SMILES: CCC1(c2cccc(CNC)c2)C2=CN=NC2NC2=C1C(=O)CC(C)(C)C2 (stereo unspecified) [US20250313563, Compound 826651]
- IC50 [1]: 1000 to 5000 nM
- IC50 [2]: > 5000 nM

SMILES: CC[C@@]1(c2cccc(Br)c2)C2=CN=NC2NC2=C1C(=O)C[C@@H](C(F)(F)F)C2 (stereo partly specified) [US20250313563, Compound 826652]
- IC50 [1]: < 100 nM
- IC50 [2]: 100 to 1000 nM

SMILES: CC[C@]1(c2cccc(Br)c2)C2=CN=NC2NC2=C1C(=O)C[C@@H](C(F)(F)F)C2 (stereo partly specified) [US20250313563, Compound 826653]
- IC50 [1]: < 100 nM
- IC50 [2]: 100 to 1000 nM

SMILES: CC[C@@]1(c2cccc(Br)c2)C2=CN=NC2NC2=C1C(=O)C[C@H](C(F)(F)F)C2 (stereo partly specified) [US20250313563, Compound 826654]
- IC50 [1]: > 5000 nM
- IC50 [2]: > 5000 nM

SMILES: CC[C@]1(c2cccc(Br)c2)C2=CN=NC2NC2=C1C(=O)C[C@H](C(F)(F)F)C2 (stereo partly specified) [US20250313563, Compound 826655]
- IC50 [1]: > 5000 nM
- IC50 [2]: > 5000 nM

SMILES: CC1(C)CC(=O)C2=C(C1)NC1=C(CN=N1)C21CCOC1 (stereo unspecified) [US20250313563, Compound 826713]
- IC50 [1]: 100 to 1000 nM
- IC50 [2]: 100 to 1000 nM

SMILES: CN1CCC2(CC1)C1=C(N=NC1)NC1=C2C(=O)CC(C)(C)C1 [US20250313563, Compound 826714]
- IC50 [1]: > 5000 nM
- IC50 [2]: > 5000 nM

SMILES: CCC1(c2cccc(Br)c2)C2=C(CC(C)CC2=O)NC2N=NC(C(F)(F)F)=C21 (stereo unspecified) [US20250313563, Compound 826715]
- IC50 [1]: < 100 nM
- IC50 [2]: < 100 nM

SMILES: CC[C@]1(c2cccc(C(F)F)c2)C2=CN=NC2NC2=C1C(=O)CC(C)(C)C2 (stereo partly specified) [US20250313563, Compound 826717]
- IC50 [1]: < 100 nM and 100 to 1000 nM
- IC50 [2]: < 100 nM and 1000 to 5000 nM

SMILES: CC[C@@]1(c2cccc(S(C)(=O)=O)c2)C2=CN=NC2NC2=C1C(=O)CC(C)(C)C2 (stereo partly specified) [US20250313563, Compound 826719]
- IC50 [1]: 1000 to 5000 nM
- IC50 [2]: > 5000 nM

SMILES: CC(=O)N1CCC2(C1)C1=CN=NC1NC1=C2C(=O)CC(C)(C)C1 (stereo unspecified) [US20250313563, Compound 826763]
- IC50 [1]: 100 to 1000 nM
- IC50 [2]: 1000 to 5000 nM

SMILES: CCC1(c2cccc(Br)c2)C2=CN=NC2NC2=C1C(=O)C(F)C(C)(C)C2 (stereo unspecified) [US20250313563, Compound 826764]
- IC50 [1]: < 100 nM
- IC50 [2]: 100 to 1000 nM

SMILES: CC1CCCC12C1=C(N=NC1)NC1=C2C(=O)CC(C)(C)C1 (stereo unspecified) [US20250313563, Compound 826765]
- IC50 [1]: 100 to 1000 nM
- IC50 [2]: 1000 to 5000 nM

SMILES: CC[C@@]1(c2ccccc2)C2=CN=NC2NC2=C1C(=O)[C@H](F)C(C)(C)C2 (stereo partly specified) [US20250313563, Compound 826766]
- IC50 [1]: 100 to 1000 nM
- IC50 [2]: 100 to 1000 nM

SMILES: CC[C@@]1(c2ccccc2)C2=CN=NC2NC2=C1C(=O)[C@@H](F)C(C)(C)C2 (stereo partly specified) [US20250313563, Compound 826767]
- IC50 [1]: > 5000 nM
- IC50 [2]: > 5000 nM

SMILES: CC[C@]1(c2ccccc2)C2=CN=NC2NC2=C1C(=O)[C@H](F)C(C)(C)C2 (stereo partly specified) [US20250313563, Compound 826768]
- IC50 [1]: < 100 nM
- IC50 [2]: 100 to 1000 nM

SMILES: CC[C@]1(c2ccccc2)C2=CN=NC2NC2=C1C(=O)[C@@H](F)C(C)(C)C2 (stereo partly specified) [US20250313563, Compound 826769]
- IC50 [1]: > 5000 nM
- IC50 [2]: > 5000 nM

SMILES: CC[C@]1(c2cccc(C(F)(F)F)c2)C2=CN=NC2NC2=C1C(=O)N(C)C(C)(C)C2 (stereo partly specified) [US20250313563, Compound 826790]
- IC50 [1]: 100 to 1000 nM
- IC50 [2]: 1000 to 5000 nM

SMILES: CC[C@@]1(c2cccc(C(F)(F)F)c2)C2=CN=NC2NC2=C1C(=O)N(C)C(C)(C)C2 (stereo partly specified) [US20250313563, Compound 826791]
- IC50 [1]: 100 to 1000 nM
- IC50 [2]: 1000 to 5000 nM

SMILES: CC1(C)CC(=O)C2=C(C1)NC1N=NC(CCC(F)(F)F)=C1C2(C)c1ccccc1 (stereo unspecified) [US20250313563, Compound 828845]
- IC50 [1]: 100 to 1000 nM
- IC50 [2]: 100 to 1000 nM

SMILES: CC[C@]1(c2cccc(Br)c2)C2=C(C[C@@H](C)CC2=O)NC2N=NC(C(F)(F)F)=C21 (stereo partly specified) [US20250313563, Compound 828847]
- IC50 [1]: < 100 nM
- IC50 [2]: < 100 nM

SMILES: CC[C@]1(c2cccc(Br)c2)C2=C(C[C@H](C)CC2=O)NC2N=NC(C(F)(F)F)=C21 (stereo partly specified) [US20250313563, Compound 828848]
- IC50 [1]: < 100 nM
- IC50 [2]: < 100 nM

SMILES: CC[C@@]1(c2cccc(Br)c2)C2=C(C[C@@H](C)CC2=O)NC2N=NC(C(F)(F)F)=C21 (stereo partly specified) [US20250313563, Compound 828849]
- IC50 [1]: 100 to 1000 nM
- IC50 [2]: 100 to 1000 nM

SMILES: CC[C@@]1(c2cccc(Br)c2)C2=C(C[C@H](C)CC2=O)NC2N=NC(C(F)(F)F)=C21 (stereo partly specified) [US20250313563, Compound 828850]
- IC50 [1]: 100 to 1000 nM
- IC50 [2]: 100 to 1000 nM

SMILES: CCC1(c2ccccc2)C2=C(N=NC2)NC2=C1C(=O)C(C)(C)CC2 (stereo unspecified) [US20250313563, Compound 835310]
- IC50 [1]: 100 to 1000 nM
- IC50 [2]: 1000 to 5000 nM

SMILES: CC[C@@]1(c2cccc(Br)c2)C2=CN=NC2NC2=C1C(=O)[C@H](F)C(C)(C)C2 (stereo partly specified) [US20250313563, Compound 835313]
- IC50 [1]: > 5000 nM
- IC50 [2]: > 5000 nM

SMILES: CC[C@]1(c2cccc(Br)c2)C2=CN=NC2NC2=C1C(=O)[C@@H](F)C(C)(C)C2 (stereo partly specified) [US20250313563, Compound 835315]
- IC50 [1]: 100 to 1000 nM
- IC50 [2]: 1000 to 5000 nM

SMILES: CCC1(c2cccc(-c3ccnc(C)c3)c2)C2=CN=NC2NC2=C1C(=O)CC(C)(C)C2 (stereo unspecified) [US20250313563, Compound 840857]
- IC50 [1]: < 100 nM
- IC50 [2]: 100 to 1000 nM

SMILES: CN1CCC2(C1)C1=C(N=NC1)NC1=C2C(=O)CC(C)(C)C1 (stereo unspecified) [US20250313563, Compound 841867]
- IC50 [1]: > 5000 nM
- IC50 [2]: > 5000 nM

SMILES: CC1(C)CC(=O)C2=C(C1)NC1N=NC(CCC(F)(F)F)=C1C21CCc2c(F)cccc21 (stereo unspecified) [US20250313563, Compound 841868]
- IC50 [1]: 100 to 1000 nM
- IC50 [2]: 100 to 1000 nM

SMILES: CCC1(c2cccc(N(C)c3ccncc3)c2)C2=CN=NC2NC2=C1C(=O)CC(C)(C)C2 (stereo unspecified) [US20250313563, Compound 853910]
- IC50 [1]: 100 to 1000 nM
- IC50 [2]: 1000 to 5000 nM
